{
  "source": "paper PMC9959244",
  "about": "“Revisiting the Solubility–Permeability Relationship with Hydrophobic Drug Umifenovir in Pluronic Solutions: Impact of pH and Co-Solvent” (Pharmaceutics, 2023)",
  "key": {"[1]": {"assay": "Phase solubility, shake-flask method with UV spectrophotometry", "type": "physicochemical", "conditions": "for solubility at 3 days: aqueous buffer (shake-flask)", "method": "The solubility of UMF was measured in pure buffers pH 2.0 and pH 7.4, with the additions of 1.5 w/v%, 4.0 w/v%, 5.5 w/v%, 7.0 w/v% of F-127, and in all these solutions in the presence of 10% and 20% ethanol at 310.15 ± 0.1 K by the standard shake-flask method. The concentrations of F-127 were chosen purposely to avoid the formation of a gel (at approximately 20% w/w in water at 310.15 K). Since the aim of the study was to evaluate the possibility of preparation of pharmaceutical products based on UMF, the experimental temperature was selected to be as very close to the normal temperature of a healthy human. […] The experimental results are presented as an average of at least three replicated experiments."}, "[2]": {"parameters": "method as in earlier work", "conditions": "cited from earlier work"}},
  "note": "Like-named read-outs stand apart in the source and are kept apart here.",
  "data": [
    {"smiles": "CCOC(=O)c1c(CSc2ccccc2)n(C)c2cc(Br)c(O)c(CN(C)C)c12", "note": "[UMF, 6-bromo-4-dimethylaminomethyl-5-hydroxy-1-methyl-2-phenylthiomethyl indole-3-carboxylic acid ethyl ester]", "values": [
      {"measurement": "Solubility increase by ethanol vs buffer pH 7.4", "setting": "[1]; 10% EtOH", "value": 1.13, "unit": "fold"},
      {"measurement": "Solubility increase by ethanol vs buffer pH 7.4", "setting": "[1]; 20% EtOH", "value": 1.8, "unit": "fold"},
      {"measurement": "Greater solubility in acidic medium (pH 2.0) as compared to alkaline one (pH 7.4)", "setting": "[1]; 310.15 K", "value": 44.4, "unit": "fold"},
      {"measurement": "solubility at 3 days", "setting": "[1]; 37 °C, pH 2, aqueous buffer, thermodynamic from solid, Solubility SUMF·103, buffer pH 2.0, 0 w/v% F-127, 310.15 K, value is S×10^3, heading: Solubility SUMF·103", "value": "710 ± 20", "unit": "µM"},
      {"measurement": "solubility at 3 days", "setting": "[1]; 37 °C, pH 2, aqueous buffer, thermodynamic from solid, pH 2.0, 310.15 K, read-out: Solubility in pure buffer", "value": 711, "unit": "µM"},
      {"measurement": "solubility at 3 days", "setting": "[1]; 37 °C, pH 2, aqueous with cosolvent or surfactant or cyclodextrin, thermodynamic from solid, Solubility SUMF·103, buffer pH 2.0, 1.5 w/v% F-127, 310.15 K, value is S×10^3, heading: Solubility SUMF·103", "value": "2050 ± 40", "unit": "µM"},
      {"measurement": "solubility at 3 days", "setting": "[1]; 37 °C, pH 2, aqueous with cosolvent or surfactant or cyclodextrin, thermodynamic from solid, Solubility SUMF·103, buffer pH 2.0, 4.0 w/v% F-127, 310.15 K, value is S×10^3, heading: Solubility SUMF·103", "value": "3990 ± 80", "unit": "µM"},
      {"measurement": "solubility at 3 days", "setting": "[1]; 37 °C, pH 2, aqueous with cosolvent or surfactant or cyclodextrin, thermodynamic from solid, Solubility SUMF·103, buffer pH 2.0, 5.5 w/v% F-127, 310.15 K, value is S×10^3, heading: Solubility SUMF·103", "value": "5610 ± 40", "unit": "µM"},
      {"measurement": "solubility at 3 days", "setting": "[1]; 37 °C, pH 2, aqueous with cosolvent or surfactant or cyclodextrin, thermodynamic from solid, Solubility SUMF·103, buffer pH 2.0, 7.0 w/v% F-127, 310.15 K, value is S×10^3, heading: Solubility SUMF·103", "value": "6340 ± 30", "unit": "µM"},
      {"measurement": "solubility at 3 days", "setting": "[1]; 37 °C, pH 7.4, aqueous buffer, thermodynamic from solid, buffer pH 7.4, 0 w/v% F-127, 310.15 K, value is S×10^4, read-out: Solubility SUMF·104", "value": "16 ± 0.1", "unit": "µM"},
      {"measurement": "solubility at 3 days", "setting": "[1]; 37 °C, pH 7.4, aqueous with cosolvent or surfactant or cyclodextrin, thermodynamic from solid, 7.0% F-127 + 20% EtOH, buffer pH 7.4, 310.15 K, read-out: Maximum solubility value", "value": 1180, "unit": "µM"},
      {"measurement": "solubility at 3 days", "setting": "[1]; 37 °C, pH 7.4, aqueous with cosolvent or surfactant or cyclodextrin, thermodynamic from solid, buffer pH 7.4 +10% EtOH, 0 w/v% F-127, 310.15 K, value is S×10^4, read-out: Solubility SUMF·104", "value": "18 ± 0.1", "unit": "µM"},
      {"measurement": "solubility at 3 days", "setting": "[1]; 37 °C, pH 7.4, aqueous with cosolvent or surfactant or cyclodextrin, thermodynamic from solid, buffer pH 7.4 +10% EtOH, 1.5 w/v% F-127, 310.15 K, value is S×10^4, read-out: Solubility SUMF·104", "value": "194 ± 1", "unit": "µM"},
      {"measurement": "solubility at 3 days", "setting": "[1]; 37 °C, pH 7.4, aqueous with cosolvent or surfactant or cyclodextrin, thermodynamic from solid, buffer pH 7.4 +10% EtOH, 4.0 w/v% F-127, 310.15 K, value is S×10^4, read-out: Solubility SUMF·104", "value": "477 ± 3", "unit": "µM"},
      {"measurement": "solubility at 3 days", "setting": "[1]; 37 °C, pH 7.4, aqueous with cosolvent or surfactant or cyclodextrin, thermodynamic from solid, buffer pH 7.4 +10% EtOH, 5.5 w/v% F-127, 310.15 K, value is S×10^4, read-out: Solubility SUMF·104", "value": "689 ± 7", "unit": "µM"},
      {"measurement": "solubility at 3 days", "setting": "[1]; 37 °C, pH 7.4, aqueous with cosolvent or surfactant or cyclodextrin, thermodynamic from solid, buffer pH 7.4 +10% EtOH, 7.0 w/v% F-127, 310.15 K, value is S×10^4, read-out: Solubility SUMF·104", "value": "806 ± 7", "unit": "µM"},
      {"measurement": "solubility at 3 days", "setting": "[1]; 37 °C, pH 7.4, aqueous with cosolvent or surfactant or cyclodextrin, thermodynamic from solid, buffer pH 7.4 +20% EtOH, 0 w/v% F-127, 310.15 K, value is S×10^4, read-out: Solubility SUMF·104", "value": "30 ± 1", "unit": "µM"},
      {"measurement": "solubility at 3 days", "setting": "[1]; 37 °C, pH 7.4, aqueous with cosolvent or surfactant or cyclodextrin, thermodynamic from solid, buffer pH 7.4 +20% EtOH, 1.5 w/v% F-127, 310.15 K, value is S×10^4, read-out: Solubility SUMF·104", "value": "276 ± 3", "unit": "µM"},
      {"measurement": "solubility at 3 days", "setting": "[1]; 37 °C, pH 7.4, aqueous with cosolvent or surfactant or cyclodextrin, thermodynamic from solid, buffer pH 7.4 +20% EtOH, 4.0 w/v% F-127, 310.15 K, value is S×10^4, read-out: Solubility SUMF·104", "value": "700 ± 5", "unit": "µM"},
      {"measurement": "solubility at 3 days", "setting": "[1]; 37 °C, pH 7.4, aqueous with cosolvent or surfactant or cyclodextrin, thermodynamic from solid, buffer pH 7.4 +20% EtOH, 5.5 w/v% F-127, 310.15 K, value is S×10^4, read-out: Solubility SUMF·104", "value": "983 ± 11", "unit": "µM"},
      {"measurement": "solubility at 3 days", "setting": "[1]; 37 °C, pH 7.4, aqueous with cosolvent or surfactant or cyclodextrin, thermodynamic from solid, buffer pH 7.4, 1.5 w/v% F-127, 310.15 K, value is S×10^4, read-out: Solubility SUMF·104", "value": "174 ± 3", "unit": "µM"},
      {"measurement": "solubility at 3 days", "setting": "[1]; 37 °C, pH 7.4, aqueous with cosolvent or surfactant or cyclodextrin, thermodynamic from solid, buffer pH 7.4, 4.0 w/v% F-127, 310.15 K, value is S×10^4, read-out: Solubility SUMF·104", "value": "393 ± 3", "unit": "µM"},
      {"measurement": "solubility at 3 days", "setting": "[1]; 37 °C, pH 7.4, aqueous with cosolvent or surfactant or cyclodextrin, thermodynamic from solid, buffer pH 7.4, 5.5 w/v% F-127, 310.15 K, value is S×10^4, read-out: Solubility SUMF·104", "value": "586 ± 2", "unit": "µM"},
      {"measurement": "solubility at 3 days", "setting": "[1]; 37 °C, pH 7.4, aqueous with cosolvent or surfactant or cyclodextrin, thermodynamic from solid, buffer pH 7.4, 7.0 w/v% F-127, 310.15 K, value is S×10^4, read-out: Solubility SUMF·104", "value": "696 ± 4", "unit": "µM"},
      {"measurement": "solubility at 3 days", "setting": "[1]; pH 7.4, pH 7.4, 310.15 K, read-out: Solubility in pure buffer", "value": 15.8, "unit": "µM"},
      {"measurement": "Solubility enhancement by 7.0% F-127", "setting": "[1]; buffer pH 2.0, vs without F-127", "value": 8.9, "unit": "fold"},
      {"measurement": "Solubility enhancement by 7.0% F-127", "setting": "[1]; buffer pH 7.4 + 10% EtOH, vs without F-127", "value": 44.8, "unit": "fold"},
      {"measurement": "Solubility enhancement by 7.0% F-127", "setting": "[1]; buffer pH 7.4 + 20% EtOH, vs without F-127", "value": 39.3, "unit": "fold"},
      {"measurement": "Solubility enhancement by 7.0% F-127", "setting": "[1]; buffer pH 7.4, vs without F-127", "value": 43.5, "unit": "fold"},
      {"measurement": "pKa", "setting": "[2]", "value": 6.0}
    ]}
  ]
}
